# In ChEMBL document CHEMBL3431459, “Roche carnitine palmitoyltransferase modulator screening data (supplementary data associated with the publication CHEMBL2216752)”:
# Experiments:
# [1] = molecular target: T1, Carnitine O-palmitoyltransferase 1, liver isoform (Homo sapiens, UniProt P50416); experiment: (§1) SUPPLEMENTARY: Inhibition of Carnitine palmitoyltransferase 1, liver isoform
# T1 sequence (P50416 whole entry): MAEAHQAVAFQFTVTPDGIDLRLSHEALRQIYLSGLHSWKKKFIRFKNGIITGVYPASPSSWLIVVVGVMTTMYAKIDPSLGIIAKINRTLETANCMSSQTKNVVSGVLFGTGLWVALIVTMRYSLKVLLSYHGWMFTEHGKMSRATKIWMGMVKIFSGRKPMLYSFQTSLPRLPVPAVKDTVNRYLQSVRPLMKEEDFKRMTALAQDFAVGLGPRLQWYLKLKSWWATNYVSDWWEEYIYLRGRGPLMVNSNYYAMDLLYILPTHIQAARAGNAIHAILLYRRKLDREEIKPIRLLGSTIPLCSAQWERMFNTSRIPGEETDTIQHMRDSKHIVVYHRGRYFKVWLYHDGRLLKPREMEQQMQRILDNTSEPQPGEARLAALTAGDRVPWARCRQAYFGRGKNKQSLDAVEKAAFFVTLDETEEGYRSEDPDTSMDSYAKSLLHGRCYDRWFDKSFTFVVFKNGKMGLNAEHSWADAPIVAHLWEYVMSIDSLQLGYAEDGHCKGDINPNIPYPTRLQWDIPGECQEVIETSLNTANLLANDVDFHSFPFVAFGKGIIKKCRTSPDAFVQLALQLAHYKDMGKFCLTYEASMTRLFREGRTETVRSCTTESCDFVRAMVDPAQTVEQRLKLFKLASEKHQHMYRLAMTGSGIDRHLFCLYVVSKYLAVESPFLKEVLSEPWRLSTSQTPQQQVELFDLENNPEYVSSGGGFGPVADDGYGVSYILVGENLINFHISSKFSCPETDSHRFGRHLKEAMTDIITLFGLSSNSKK
# [2] = molecular target: T2, Carnitine O-palmitoyltransferase 1, liver isoform (Rattus norvegicus, UniProt P32198); experiment: as §1
# T2 sequence (P32198 whole entry): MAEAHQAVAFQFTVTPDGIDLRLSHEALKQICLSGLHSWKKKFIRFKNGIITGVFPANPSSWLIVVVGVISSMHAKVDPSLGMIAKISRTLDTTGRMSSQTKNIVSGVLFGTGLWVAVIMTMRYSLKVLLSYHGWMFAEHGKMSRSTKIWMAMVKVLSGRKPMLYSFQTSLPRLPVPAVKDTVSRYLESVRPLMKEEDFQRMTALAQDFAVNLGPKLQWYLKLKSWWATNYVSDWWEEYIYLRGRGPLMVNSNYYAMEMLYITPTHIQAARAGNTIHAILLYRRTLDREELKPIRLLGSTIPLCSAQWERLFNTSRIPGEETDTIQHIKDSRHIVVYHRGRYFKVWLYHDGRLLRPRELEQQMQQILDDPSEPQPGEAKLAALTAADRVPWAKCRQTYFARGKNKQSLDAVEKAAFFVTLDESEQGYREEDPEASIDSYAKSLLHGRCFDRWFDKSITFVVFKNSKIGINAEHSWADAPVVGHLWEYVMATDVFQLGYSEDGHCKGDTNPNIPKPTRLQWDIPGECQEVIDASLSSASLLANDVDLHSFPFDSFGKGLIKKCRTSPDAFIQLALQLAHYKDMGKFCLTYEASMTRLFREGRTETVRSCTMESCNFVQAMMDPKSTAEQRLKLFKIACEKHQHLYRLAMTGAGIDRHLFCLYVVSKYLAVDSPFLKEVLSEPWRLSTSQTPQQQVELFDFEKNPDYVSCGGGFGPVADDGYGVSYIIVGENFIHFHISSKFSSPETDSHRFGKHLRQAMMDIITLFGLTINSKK
# [3] = SUPPLEMENTARY: Lipophilicity (log D) Determination by high-throughput shake-flask; type: physicochemical; settings: octanol/water
# [4] = SUPPLEMENTARY: PAMPA permeability assay; type: physicochemical; settings: read-out: Permeability
# [5] = molecular target: T3, Carnitine O-palmitoyltransferase 2, mitochondrial (Homo sapiens, UniProt P23786); experiment: (§2) SUPPLEMENTARY: Inhibition of Carnitine palmitoyltransferase 2
# T3 sequence (P23786 whole entry): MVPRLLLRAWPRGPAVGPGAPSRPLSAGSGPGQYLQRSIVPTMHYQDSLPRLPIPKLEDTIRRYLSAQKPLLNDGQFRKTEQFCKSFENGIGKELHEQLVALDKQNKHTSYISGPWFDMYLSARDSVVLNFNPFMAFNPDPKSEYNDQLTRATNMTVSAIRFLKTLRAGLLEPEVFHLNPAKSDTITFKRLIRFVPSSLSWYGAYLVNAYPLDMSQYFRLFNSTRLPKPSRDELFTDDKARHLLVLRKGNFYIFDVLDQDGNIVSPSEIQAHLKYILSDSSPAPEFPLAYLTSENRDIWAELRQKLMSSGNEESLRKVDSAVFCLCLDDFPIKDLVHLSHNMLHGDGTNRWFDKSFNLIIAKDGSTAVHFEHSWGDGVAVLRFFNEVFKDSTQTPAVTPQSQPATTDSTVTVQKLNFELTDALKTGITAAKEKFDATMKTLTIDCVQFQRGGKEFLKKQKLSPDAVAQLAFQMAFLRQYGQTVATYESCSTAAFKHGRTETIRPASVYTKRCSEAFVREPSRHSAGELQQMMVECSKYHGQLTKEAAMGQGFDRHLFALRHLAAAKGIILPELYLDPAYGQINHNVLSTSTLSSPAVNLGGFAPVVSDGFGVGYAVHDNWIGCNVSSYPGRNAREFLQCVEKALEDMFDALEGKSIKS
# [6] = molecular target: T4, Carnitine O-palmitoyltransferase 2, mitochondrial (Rattus norvegicus, UniProt P18886); experiment: as §2
# T4 sequence (P18886 whole entry): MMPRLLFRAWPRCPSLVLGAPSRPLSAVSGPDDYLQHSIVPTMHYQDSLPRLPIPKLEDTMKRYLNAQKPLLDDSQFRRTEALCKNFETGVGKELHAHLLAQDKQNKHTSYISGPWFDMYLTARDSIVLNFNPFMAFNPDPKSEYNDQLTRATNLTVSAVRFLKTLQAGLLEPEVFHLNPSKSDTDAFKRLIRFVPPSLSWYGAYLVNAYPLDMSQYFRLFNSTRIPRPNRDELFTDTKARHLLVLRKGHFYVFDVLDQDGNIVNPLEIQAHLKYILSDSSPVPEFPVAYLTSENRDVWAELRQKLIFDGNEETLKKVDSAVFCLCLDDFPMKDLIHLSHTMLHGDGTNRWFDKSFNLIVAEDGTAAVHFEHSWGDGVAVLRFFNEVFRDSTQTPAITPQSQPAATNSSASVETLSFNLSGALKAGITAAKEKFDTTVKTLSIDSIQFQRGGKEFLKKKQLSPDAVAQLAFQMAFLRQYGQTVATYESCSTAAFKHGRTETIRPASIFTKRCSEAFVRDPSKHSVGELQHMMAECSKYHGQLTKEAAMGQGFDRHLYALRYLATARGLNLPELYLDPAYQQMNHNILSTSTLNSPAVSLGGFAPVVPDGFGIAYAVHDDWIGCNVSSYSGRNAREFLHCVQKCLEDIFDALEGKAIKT
# [7] = SUPPLEMENTARY: Lyophilisation Solubility Assay (LYSA); type: physicochemical; settings: read-out: Kinetic_solubility
# [8] = molecular target: T5, Carnitine O-palmitoyltransferase 1, muscle isoform (Homo sapiens, UniProt Q92523); experiment: SUPPLEMENTARY: Inhibition of Carnitine palmitoyltransferase 1, muscle isoform; design: species or system Muscle tissue
# T5 sequence (Q92523 whole entry): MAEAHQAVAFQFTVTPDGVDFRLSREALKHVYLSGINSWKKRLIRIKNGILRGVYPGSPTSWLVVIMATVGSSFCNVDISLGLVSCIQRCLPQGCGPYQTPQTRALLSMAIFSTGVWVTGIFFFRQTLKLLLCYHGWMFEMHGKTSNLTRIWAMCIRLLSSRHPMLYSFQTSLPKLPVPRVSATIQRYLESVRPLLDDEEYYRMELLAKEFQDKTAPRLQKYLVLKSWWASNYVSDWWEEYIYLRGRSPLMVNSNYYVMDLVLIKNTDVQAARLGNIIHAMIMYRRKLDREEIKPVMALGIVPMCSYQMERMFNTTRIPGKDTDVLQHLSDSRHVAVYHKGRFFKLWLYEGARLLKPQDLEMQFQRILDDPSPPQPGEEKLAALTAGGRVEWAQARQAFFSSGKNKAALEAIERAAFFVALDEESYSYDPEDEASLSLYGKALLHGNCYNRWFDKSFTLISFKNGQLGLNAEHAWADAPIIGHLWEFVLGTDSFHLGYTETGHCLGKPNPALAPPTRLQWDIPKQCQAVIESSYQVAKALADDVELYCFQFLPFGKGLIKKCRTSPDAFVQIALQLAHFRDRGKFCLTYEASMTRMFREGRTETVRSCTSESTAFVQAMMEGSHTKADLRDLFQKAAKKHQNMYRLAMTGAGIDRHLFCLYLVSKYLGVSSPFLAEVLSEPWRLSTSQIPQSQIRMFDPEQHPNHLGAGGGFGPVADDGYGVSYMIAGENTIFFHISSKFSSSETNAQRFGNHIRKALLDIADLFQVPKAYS
IC50 [1] [nM],IC50 [2] [nM],logD [3],Papp [4] [×10⁻⁶ cm/s],IC50 [5] [µM],IC50 [6] [µM],solubility kinetic [7] [µg/mL],IC50 [8] [µM],SMILES
16.2,30.1,-0.02,0.14,> 100,> 100,521,,COc1ccc(Cl)cc1S(=O)(=O)N1CC(C(=O)O)Oc2ccc(C(=O)Nc3cccc(F)c3)cc21 (stereo not drawn)
20.1,21.8,0.5,0.0275,54.6,> 100,16,0.226,O=C(Nc1ccc(-c2nnn[nH]2)cc1)c1cccc(NS(=O)(=O)c2cccc(Cl)c2)c1
34.2,255,2.66,5.08,39.7,37.7,52,> 100,NC(=O)c1ccc(-c2noc([C@H]3CCCCN3C(=O)COc3ccccc3)n2)cc1
87,205,2.17,1.63,61.4,57.9,33,> 100,NS(=O)(=O)c1cccc(-c2noc([C@H]3CCCCN3C(=O)COc3ccccc3)n2)c1
93.5,1490,0.99,1.92,> 100,> 100,> 461,93.6,O=C(O)c1cccc(-c2noc([C@H]3CCCCN3C(=O)COc3ccccc3)n2)c1
34.2,122,1.93,3.63,5.73,2.92,44,4.93,O=C(O)c1ccc(NC(=O)c2cccc(S(=O)(=O)N3CCCc4ccc(C(F)(F)F)cc43)c2)cc1
40.2,1040,3.3,1.49,19.5,13.2,31,> 100,CCN(CC)C(=O)c1ccc(-c2noc([C@H]3CCCCN3C(=O)COc3ccccc3)n2)cc1
122,568,1.62,0.841,1.82,1.35,310,30.2,Cc1cc(C(=O)Nc2ccc(C(=O)O)cc2)cc(S(=O)(=O)Nc2cccc(C(F)(F)F)c2)c1C
86.1,139,0.49,2.25,25.7,> 100,13,53.1,O=C(O)c1ccc(NC(=O)c2ccc(Cl)c(NS(=O)(=O)c3cc(Cl)cc(Cl)c3)c2)cc1
> 10000,,2.49,7.65,> 100,> 100,92,> 100,CN(CCOc1ccc(CC2SC(=O)NC2=O)cc1)c1ccccn1 (stereo not drawn) [ROSIGLITAZONE]
